What was measured:
Settings in all cases: 48 h
SEM cells [1] = test: cell viability relative to DMSO control; higher = less cytotoxic
Method in brief: (§1)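 Cells were incubated for 48 h at 37°C before CellTiter-Glo One luminescence was read. The cells were NOMO1 or SEM (500 cells/well) or P12-Ichikawa (1000 cells/well) leukemia cells, adapted for at least four passages in each medium and seeded in 1536-well plates (5 μl). Dosing used library compounds in DMSO applied by pin over 11 threefold points, 47 μM to 0.79 nM. Viability is the per-plate percentage of DMSO wells, with cell-free wells as background.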

NOMO1 [2] = test: as above
Method in brief: as §1

P12-Ichikawa [3] = test: as above
Method in brief: as §1

SEM cells [4] = test: AUC of viability dose-response curve (% viability x log10 dose units); higher = less sensitive
Method in brief: (§2)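 Over 48 h at 37°C, leukemia cells in 1536-well plates (500 or 1000 cells/well), adapted to each medium, received library compounds in DMSO at 11 threefold doses from 47 μM to 0.79 nM. CellTiter-Glo One luminescence, normalised per plate to DMSO and cell-free wells, was fitted by a four-parameter log-logistic function of log10 dose. The area under the curve was then integrated by trapezoidal rule, after scaling curves above full viability and removing those that failed quality control.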

NOMO1 [5] = test: as above
Method in brief: as §2

P12-Ichikawa [6] = test: as above
Method in brief: as §2

CC(=O)CC(C1=CC=CC=C1)C/2=C(O)/C3=CC=CC=C3OC2=O (stereo not given)
cell viability [%]
Settings	NOMO1 [2]	P12-Ichikawa [3]	SEM cells [1]
HPLM + 10% dialyzed FBS, 0.000781 µM	96.8	106	80.7
HPLM + 10% dialyzed FBS, 0.00234 µM	126	112	101
HPLM + 10% dialyzed FBS, 0.00702 µM	111	108	114
HPLM + 10% dialyzed FBS, 0.0211 µM	129	117	71.7
HPLM + 10% dialyzed FBS, 0.0632 µM	124	111	119
HPLM + 10% dialyzed FBS, 0.19 µM	132	125	114
HPLM + 10% dialyzed FBS, 0.569 µM	132	123	103
HPLM + 10% dialyzed FBS, 1.71 µM	128	120	110
HPLM + 10% dialyzed FBS, 5.12 µM	147	113	116
HPLM + 10% dialyzed FBS, 15.4 µM	143	118	113
HPLM + 10% dialyzed FBS, 46.1 µM	155	123	120
RPMI 5 mM glucose + 10% FBS, 0.000781 µM	–	105	110
RPMI 5 mM glucose + 10% FBS, 0.00234 µM	–	120	104
RPMI 5 mM glucose + 10% FBS, 0.00702 µM	–	130	105
RPMI 5 mM glucose + 10% FBS, 0.0211 µM	–	128	73.1
RPMI 5 mM glucose + 10% FBS, 0.0632 µM	–	130	105
RPMI 5 mM glucose + 10% FBS, 0.19 µM	–	132	105
RPMI 5 mM glucose + 10% FBS, 0.569 µM	–	132	115
RPMI 5 mM glucose + 10% FBS, 1.71 µM	–	127	118
RPMI 5 mM glucose + 10% FBS, 5.12 µM	–	128	115
RPMI 5 mM glucose + 10% FBS, 15.4 µM	–	132	125
RPMI 5 mM glucose + 10% FBS, 46.1 µM	–	124	137
RPMI 5 mM glucose + 10% dialyzed FBS, 0.000781 µM	109	106	84.4
RPMI 5 mM glucose + 10% dialyzed FBS, 0.00234 µM	116	122	103
RPMI 5 mM glucose + 10% dialyzed FBS, 0.00702 µM	128	116	114
RPMI 5 mM glucose + 10% dialyzed FBS, 0.0211 µM	123	125	73.4
RPMI 5 mM glucose + 10% dialyzed FBS, 0.0632 µM	120	128	111
RPMI 5 mM glucose + 10% dialyzed FBS, 0.19 µM	126	127	123
RPMI 5 mM glucose + 10% dialyzed FBS, 0.569 µM	127	125	119
RPMI 5 mM glucose + 10% dialyzed FBS, 1.71 µM	121	121	125
RPMI 5 mM glucose + 10% dialyzed FBS, 5.12 µM	124	132	128
RPMI 5 mM glucose + 10% dialyzed FBS, 15.4 µM	127	132	126
RPMI 5 mM glucose + 10% dialyzed FBS, 46.1 µM	129	129	123

AUC of viability dose-response curve
Settings	NOMO1 [5]	P12-Ichikawa [6]	SEM cells [4]
HPLM + 10% dialyzed FBS	408	462	433
RPMI 5 mM glucose + 10% FBS	447	469	403
RPMI 5 mM glucose + 10% dialyzed FBS	471	465	431

N[S+](=O)([O-])c1cc(Cl)c(Cl)c([S+](N)(=O)[O-])c1
cell viability [%]
Settings	NOMO1 [2]	P12-Ichikawa [3]	SEM cells [1]
HPLM + 10% dialyzed FBS, 0.000781 µM	112	116	108
HPLM + 10% dialyzed FBS, 0.00234 µM	92.2	108	95.8
HPLM + 10% dialyzed FBS, 0.00702 µM	107	112	108
HPLM + 10% dialyzed FBS, 0.0211 µM	105	112	109
HPLM + 10% dialyzed FBS, 0.0632 µM	106	107	101
HPLM + 10% dialyzed FBS, 0.19 µM	104	105	90.5
HPLM + 10% dialyzed FBS, 0.569 µM	116	92.3	106
HPLM + 10% dialyzed FBS, 1.71 µM	98.3	102	104
HPLM + 10% dialyzed FBS, 5.12 µM	86.5	108	111
HPLM + 10% dialyzed FBS, 15.4 µM	82.6	101	39.1
HPLM + 10% dialyzed FBS, 46.1 µM	94.3	97.9	88.9
RPMI 5 mM glucose + 10% FBS, 0.000781 µM	112	100	85.2
RPMI 5 mM glucose + 10% FBS, 0.00234 µM	95.7	109	97
RPMI 5 mM glucose + 10% FBS, 0.00702 µM	96	109	111
RPMI 5 mM glucose + 10% FBS, 0.0211 µM	101	113	97.7
RPMI 5 mM glucose + 10% FBS, 0.0632 µM	104	100	119
RPMI 5 mM glucose + 10% FBS, 0.19 µM	93.7	103	112
RPMI 5 mM glucose + 10% FBS, 0.569 µM	99.3	106	116
RPMI 5 mM glucose + 10% FBS, 1.71 µM	95.3	97.3	98.2
RPMI 5 mM glucose + 10% FBS, 5.12 µM	100	106	116
RPMI 5 mM glucose + 10% FBS, 15.4 µM	89.3	99.8	35.5
RPMI 5 mM glucose + 10% FBS, 46.1 µM	87.5	100	84.6
RPMI 5 mM glucose + 10% dialyzed FBS, 0.000781 µM	97.9	97.5	102
RPMI 5 mM glucose + 10% dialyzed FBS, 0.00234 µM	99.1	105	86
RPMI 5 mM glucose + 10% dialyzed FBS, 0.00702 µM	110	97	98.8
RPMI 5 mM glucose + 10% dialyzed FBS, 0.0211 µM	97.5	101	101
RPMI 5 mM glucose + 10% dialyzed FBS, 0.0632 µM	108	104	106
RPMI 5 mM glucose + 10% dialyzed FBS, 0.19 µM	95.7	101	97.9
RPMI 5 mM glucose + 10% dialyzed FBS, 0.569 µM	98.5	105	99.5
RPMI 5 mM glucose + 10% dialyzed FBS, 1.71 µM	92.6	97.2	105
RPMI 5 mM glucose + 10% dialyzed FBS, 5.12 µM	91.7	101	107
RPMI 5 mM glucose + 10% dialyzed FBS, 15.4 µM	100	98	35.6
RPMI 5 mM glucose + 10% dialyzed FBS, 46.1 µM	85.8	89.8	87.1

AUC of viability dose-response curve
Settings	NOMO1 [5]	P12-Ichikawa [6]	SEM cells [4]
HPLM + 10% dialyzed FBS	453	448	450
RPMI 5 mM glucose + 10% FBS	445	460	446
RPMI 5 mM glucose + 10% dialyzed FBS	458	473	449

Reference: the supplement of paper PMC11451515
